Patent US8901118B2, “Compounds and methods for kinase modulation, and indications therefor” (Plexxikon Inc., priority 2010, dated 2014)

Columns and labels:
CYP3A4(BFC) = CYP3A4(BFC) (Homo sapiens, UniProt P08684); assay: CYP3A4(BFC) inhibition; format: in vitro ADME; details: CYP3A4, substrate BFC; read-out: Cyp IC50 3A4(BFC)
Outline: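 Inhibition of human CYP3A4 with the BFC substrate was measured by fluorescence loss of the metabolized product. Compounds at 100 mM in DMSO were diluted 1 μL into 82 μL acetonitrile, then 11 μL into 204 μL cofactor mix with NADPH regeneration solutions, and serially diluted 1:1 to 10 points. Plates were incubated 30 min at 37° C and read at 409 ex/460 em to obtain IC50.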

CYP1A2 = target: T1, CYP1A2 (Homo sapiens, UniProt P05177); assay: CYP1A2 inhibition (fluorescent substrate CEC); format: in vitro ADME; details: read-out: Cyp IC50 1A2
T1 sequence (P05177 1-516): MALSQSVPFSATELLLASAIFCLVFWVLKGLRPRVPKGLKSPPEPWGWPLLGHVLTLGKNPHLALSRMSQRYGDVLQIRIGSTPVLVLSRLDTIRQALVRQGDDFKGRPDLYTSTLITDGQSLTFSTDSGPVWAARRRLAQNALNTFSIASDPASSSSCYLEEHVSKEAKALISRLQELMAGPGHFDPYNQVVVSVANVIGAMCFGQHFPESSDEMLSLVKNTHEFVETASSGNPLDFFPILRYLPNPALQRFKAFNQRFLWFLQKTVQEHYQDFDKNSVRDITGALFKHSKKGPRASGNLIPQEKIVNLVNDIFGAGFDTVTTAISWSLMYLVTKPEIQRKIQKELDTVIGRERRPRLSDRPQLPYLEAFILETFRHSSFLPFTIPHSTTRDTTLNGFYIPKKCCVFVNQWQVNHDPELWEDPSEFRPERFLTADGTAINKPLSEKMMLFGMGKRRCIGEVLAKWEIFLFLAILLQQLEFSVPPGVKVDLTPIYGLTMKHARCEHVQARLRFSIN
Outline: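 Inhibition is measured as the drop in fluorescent metabolite formation across a 10-point compound titration with NADPH regeneration at 37 °C. Incubation lasts 15 min for CYP1A2, 45 min for CYP2C9 and 30 min for CYP2C19 and CYP2D6.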

[1] = Relative solubility by turbidity in aqueous buffers (pH 1.5, 4.5, 6.8, 7.4); format: physicochemical; details: for turbidity threshold (L, M, H) 1.4: pH 1.5 (SGF); for turbidity threshold (L, M, H) 4.5: pH 4.5 (SIF); for turbidity threshold (L, M, H) 6.8: pH 6.8 (SIF); for turbidity threshold (L, M, H) 7.4: pH 7.4 (HEPES)
Outline: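 Twofold DMSO dilutions of a 25 mM stock were spiked into SGF (0.5M NaCl, pH 1.5), SIF (0.05M NaH2PO4, pH 4.5 and 6.8) or HEPES buffer (10 mM HEPES, 150 mM NaCl, pH 7.4). Absorbance was read at 490, 535 and 650 nm. The endpoint is the concentration crossing O.D. 0.01, averaged across wavelengths.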

Sequence of CYP3A4(BFC) (P08684 whole entry): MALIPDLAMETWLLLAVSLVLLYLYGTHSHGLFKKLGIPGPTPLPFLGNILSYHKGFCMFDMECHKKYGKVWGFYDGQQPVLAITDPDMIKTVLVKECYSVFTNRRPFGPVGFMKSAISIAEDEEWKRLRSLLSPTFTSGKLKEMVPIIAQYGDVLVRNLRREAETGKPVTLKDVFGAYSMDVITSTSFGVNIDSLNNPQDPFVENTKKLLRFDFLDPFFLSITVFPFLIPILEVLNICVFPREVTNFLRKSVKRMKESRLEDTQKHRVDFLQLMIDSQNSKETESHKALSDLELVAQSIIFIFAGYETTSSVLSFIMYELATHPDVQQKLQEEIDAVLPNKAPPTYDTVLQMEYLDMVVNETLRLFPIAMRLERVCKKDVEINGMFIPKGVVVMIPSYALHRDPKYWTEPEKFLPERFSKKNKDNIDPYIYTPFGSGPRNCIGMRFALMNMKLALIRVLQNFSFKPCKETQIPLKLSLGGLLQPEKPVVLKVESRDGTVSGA

IC50 (CYP3A4(BFC)) [µM] | IC50 (CYP1A2) [µM] | Structure (SMILES) | turbidity threshold (L, M, H) 1.4 [1] | turbidity threshold (L, M, H) 4.5 [1] | turbidity threshold (L, M, H) 6.8 [1] | turbidity threshold (L, M, H) 7.4 [1]
> 10 | > 10 | CCCNc1ncnc2[nH]cc(C(=O)c3ccc(Nc4ccc(C)nc4)nc3F)c12 [Compound P-4114, [2-fluoro-6-[(6-methyl-3-pyridyl)amino]-3-pyridyl]-[4-(propylamino)-7H-pyrrolo[2,3-d]pyrimidin-5-yl]methanone] | H (high solubility if the threshold concentration is >250 μm) | L (low solubility if the threshold concentration is <31.3 μM) | L (low solubility if the threshold concentration is <31.3 μM) | L (low solubility if the threshold concentration is <31.3 μM)
> 10 | < 5 | CNc1ncnc2[nH]cc(C(=O)c3ccc(Nc4ccc(C)nc4)nc3F)c12 [Compound P-4115, [2-fluoro-6-[(6-methyl-3-pyridyl)amino]-3-pyridyl]-[4-(methylamino)-7H-pyrrolo[2,3-d]pyrimidin-5-yl]methanone] | H (high solubility if the threshold concentration is >250 μm) | M (moderate solubility if the threshold concentration is 31.3 μM to 250 μM) | M (moderate solubility if the threshold concentration is 31.3 μM to 250 μM) | M (moderate solubility if the threshold concentration is 31.3 μM to 250 μM)
> 10 | > 10 | CCc1ccc(Nc2ccc(C(=O)c3c[nH]c4ncnc(NC5CCOCC5)c34)c(F)n2)cn1 [Compound P-4116, [6-[(6-ethyl-3-pyridyl)amino]-2-fluoro-3-pyridyl]-[4-(tetrahydropyran-4-ylamino)-7H-pyrrolo[2,3-d]pyrimidin-5-yl]methanone] | H (high solubility if the threshold concentration is >250 μm) | M (moderate solubility if the threshold concentration is 31.3 μM to 250 μM) | M (moderate solubility if the threshold concentration is 31.3 μM to 250 μM) | M (moderate solubility if the threshold concentration is 31.3 μM to 250 μM)
> 10 | 5 to 10 | CCc1ccc(Nc2ccc(C(=O)c3c[nH]c4ncnc(NC(C)C)c34)c(F)n2)cn1 [Compound P-4117, [6-[(6-ethyl-3-pyridyl)amino]-2-fluoro-3-pyridyl]-[4-(isopropylamino)-7H-pyrrolo[2,3-d]pyrimidin-5-yl]methanone] | H (high solubility if the threshold concentration is >250 μm) | L (low solubility if the threshold concentration is <31.3 μM) | L (low solubility if the threshold concentration is <31.3 μM) | L (low solubility if the threshold concentration is <31.3 μM)
> 10 | > 10 | CCc1ccc(Nc2ccc(C(=O)c3c[nH]c4ncnc(NCC5CC5)c34)c(F)n2)cn1 [Compound P-4118, [4-(cyclopropylmethylamino)-7H-pyrrolo[2,3-d]pyrimidin-5-yl]-[6-[(6-ethyl-3-pyridyl)amino]-2-fluoro-3-pyridyl]methanone] | H (high solubility if the threshold concentration is >250 μm) | M (moderate solubility if the threshold concentration is 31.3 μM to 250 μM) | M (moderate solubility if the threshold concentration is 31.3 μM to 250 μM) | L (low solubility if the threshold concentration is <31.3 μM)
> 10 | > 10 | CCc1ccc(Nc2ccc(C(=O)c3c[nH]c4ncnc(NCCOC)c34)c(F)n2)cn1 [Compound P-4119, [6-[(6-ethyl-3-pyridyl)amino]-2-fluoro-3-pyridyl]-[4-(2-methoxyethylamino)-7H-pyrrolo[2,3-d]pyrimidin-5-yl]methanone] | H (high solubility if the threshold concentration is >250 μm) | M (moderate solubility if the threshold concentration is 31.3 μM to 250 μM) | M (moderate solubility if the threshold concentration is 31.3 μM to 250 μM) | L (low solubility if the threshold concentration is <31.3 μM)
> 10 | < 5 | CCc1ccc(Nc2ccc(C(=O)c3c[nH]c4ncnc(NCC(F)(F)F)c34)c(F)n2)cn1 [Compound P-4120, [6-[(6-ethyl-3-pyridyl)amino]-2-fluoro-3-pyridyl]-[4-(2,2,2-trifluoroethylamino)-7H-pyrrolo[2,3-d]pyrimidin-5-yl]methanone] | L (low solubility if the threshold concentration is <31.3 μM) | M (moderate solubility if the threshold concentration is 31.3 μM to 250 μM) | M (moderate solubility if the threshold concentration is 31.3 μM to 250 μM) | M (moderate solubility if the threshold concentration is 31.3 μM to 250 μM)
> 10 | > 10 | CCc1ccc(Nc2ccc(C(=O)c3c[nH]c4ncnc(NCC(C)C)c34)c(F)n2)cn1 [Compound P-4121, [6-[(6-ethyl-3-pyridyl)amino]-2-fluoro-3-pyridyl]-[4-(isobutylamino)-7H-pyrrolo[2,3-d]pyrimidin-5-yl]methanone] | H (high solubility if the threshold concentration is >250 μm) | H (high solubility if the threshold concentration is >250 μm) | H (high solubility if the threshold concentration is >250 μm) | H (high solubility if the threshold concentration is >250 μm)
> 10 | > 10 | CCCNc1ncnc2[nH]cc(C(=O)c3ccc(Nc4ccc(CC)nc4)nc3F)c12 [Compound P-4122, [6-[(6-ethyl-3-pyridyl)amino]-2-fluoro-3-pyridyl]-[4-(propylamino)-7H-pyrrolo[2,3-d]pyrimidin-5-yl]methanone] | H (high solubility if the threshold concentration is >250 μm) | L (low solubility if the threshold concentration is <31.3 μM) | M (moderate solubility if the threshold concentration is 31.3 μM to 250 μM) | L (low solubility if the threshold concentration is <31.3 μM)
> 10 | > 10 | CCNc1ncnc2[nH]cc(C(=O)c3ccc(Nc4ccc(CC)nc4)nc3F)c12 [Compound P-4123, [4-(ethylamino)-7H-pyrrolo[2,3-d]pyrimidin-5-yl]-[6-[(6-ethyl-3-pyridyl)amino]-2-fluoro-3-pyridyl]methanone] | H (high solubility if the threshold concentration is >250 μm) | L (low solubility if the threshold concentration is <31.3 μM) | L (low solubility if the threshold concentration is <31.3 μM) | L (low solubility if the threshold concentration is <31.3 μM)
> 10 | < 5 | CCc1ccc(Nc2ccc(C(=O)c3c[nH]c4ncnc(NC)c34)c(F)n2)cn1 [Compound P-4124, [6-[(6-ethyl-3-pyridyl)amino]-2-fluoro-3-pyridyl]-[4-(methylamino)-7H-pyrrolo[2,3-d]pyrimidin-5-yl]methanone] | M (moderate solubility if the threshold concentration is 31.3 μM to 250 μM) | L (low solubility if the threshold concentration is <31.3 μM) | L (low solubility if the threshold concentration is <31.3 μM) | M (moderate solubility if the threshold concentration is 31.3 μM to 250 μM)
> 10 | > 10 | CCc1ccc(Nc2ccc(C(=O)c3c[nH]c4ncnc(NC5CC5)c34)c(F)n2)cn1 [Compound P-4125, [4-(cyclopropylamino)-7H-pyrrolo[2,3-d]pyrimidin-5-yl]-[6-[(6-ethyl-3-pyridyl)amino]-2-fluoro-3-pyridyl]methanone] | H (high solubility if the threshold concentration is >250 μm) | L (low solubility if the threshold concentration is <31.3 μM) | L (low solubility if the threshold concentration is <31.3 μM) | L (low solubility if the threshold concentration is <31.3 μM)
